System: isolated gastric fundic gland
Test: CAP: Acid Secretion Inhibition Test In Vitro ([14C]-aminopyrine uptake test)
Type: cell-based, male Japanese White rabbit
Conditions: Oryctolagus cuniculus; final concentration 10^-5 M, histamine 10^-5 M; read-out: acid secretion inhibitory rate (CAP)
Protocol: CAP: Acid Secretion Inhibition Test In Vitro
The acid secretion inhibitory activity in a cell level is studied. It can also be used for studying the mechanism of the effect.
ii-a) Preparation of isolated gastric fundus gland suspension
First, an isolated gastric fundic gland sample was prepared. Namely, a male Japanese White rabbit (2.5 to 3 kg) was anesthetized to death with Nembutal™ and then the abdomen was incised. Immediately thereafter, the stomach was removed and, after its pyloric and cardiac antrum were severed, incised along its greater curvature into two sheets. The gastric contents adhering to the mucosal surface was washed out with ice-cooled PBS (-) and then carefully washed therein. The gastric wall was spread on a cork board with its mucosal surface facing up and the feed and mucus thereon were completely removed with sterile gauze. The mucosa was separated therefrom by a spatula and then collected in ice-cooled PBS (-). After being washed twice with PBS (-), the mucosa was minced into 2-3 mm^3 pieces by scissors. These pieces were further washed twice with a nutrient solution. The nutrient solution comprises 132.4 mM of NaCl, 5.4 mM of KCl, 5 mM of Na2 HPO4.12H2 O, 1 mM of NaH2 PO4.2H2,
1.2 mM of MgSO4, 1 mM of CaCl2, 25 mM of HEPES, 2 mg/ml of glucose, and 1 mg/ml of BSA.
Into 70 ml of the nutrient solution containing 1 mg/ml of collagenase, minced mucosal pieces were dispersed and intensely stirred in a conical flask with a stirrer at 37° C. for 40 to 60 minutes. During this period, 100% O2 was sprayed on the nutrient solution surface and the pH was appropriately measured such that it was immediately adjusted to pH 7.4, when the value was therebelow, with a base. The nutrient solution was added to the reaction solution so as to attain the total amount of about 200 ml. After being filtered through a mesh, the suspension was divisionally introduced into 50 ml centrifuge tubes and left for 15 minutes such that gastric fundic gland was deposited. The supernatant was repeatedly removed by an aspirator, dispersed in the nutrient solution, and then left such that the gastric fundic gland was washed three times. At this time, without using a pipette, the suspension was alternately introduced into two centrifuge tubes so as to effect dispersion. The number of cells was counted under microscope and adjusted to 1.6×10^6 cells/ml.
ii-b) [^14 C]-aminopyrine uptake test.
Then, [^14 C]-aminopyrine uptake test was performed. After an Eppendorf tube was weighed, 10 μl (final concentration: 10^-5 M) of histamine dissolved in the above-mentioned nutrient solution, 10 μl (final concentration: 10^-5 M) of the test compound dissolved in DMSO, and 10 μl (final concentration: 0.05 μCi/ml) of [^14 C]-aminopyrine diluted with the nutrient solution were introduced therein and then 970 μl of the isolated gastric fundic gland suspension prepared above was added thereto. Subsequently, this mixture was shaken at 37° C. for 40 minutes at 125 cycles/minute. After being centrifuged for 30 seconds, 200 μl of its supernatant was collected into a mini-vial, while the rest was removed by an aspirator. The gland pellet was completely dried as the tube with its lid being opened was kept for one night in a drying oven at 80° C. and then the lid was closed and the weight was determined at room temperature. Then 100 μl of 1N KOH was added thereto and the tube with its lid being closed was treated at 60° C. for 1 to 2 hours so as to dissolve the pellet. Then, the contents thereof were transferred to a mini-vial. Into the mini-vial containing the supernatant or gland pellet, 4 ml of Atomlite™ was added and then the radioactivity was measured by a liquid scintillation counter. Here, after the radioactivity of the gland pellet was corrected by using a sample in which 20 mM of NaSCN was added so as to cancel the hydrogen ion concentration gradient, the integration ratio of aminopyrine specifically trapped by the gland pellet was calculated. […]

Question: With CCN1CCCC1CNC(=O)c1cc(OC/C=C(\C)CCC=C(C)C)cc(OC/C=C(\C)CCC=C(C)C)c1 (stereo not drawn) [Example 12, 1-ethyl-2-(3,5-digeranyloxybenzoylaminomethyl)pyrrolidine] as the compound, how does the inhibition at 10 µM read?
Answer: 100%

Question: For CCN1CCCC1CNC(=O)c1ccccc1SC/C=C(\C)CCC=C(C)C (stereo not drawn) [Example 14, 1-ethyl-2-(2-geranylthiobenzoylaminomethyl)pyrrolidine], which inhibition at 10 µM is on record?
Answer: 98.1%

Question: Which inhibition at 10 µM does the source give for CCN1CCCC1CNC(=O)c1ccc(OC/C=C(\C)CCC=C(C)C)c(OC)c1 (stereo not drawn) [Example 16, 1-ethyl-2-(4-geranyloxy-3-methoxybenzoylaminomethyl)pyrrolidine] here?
Answer: 99.8%

Question: Which inhibition at 10 µM does the source give for CCN1CCCC1CNC(=O)c1cccc(OC)c1OC/C=C(\C)CCC=C(C)C (stereo not drawn) [Example 17, 1-ethyl-2-(2-geranyloxy-3-methoxybenzoylaminomethyl)pyrrolidine] here?
Answer: 100%

Question: Which inhibition at 10 µM does the source give for CCN1CCCC1CNC(=O)c1cc(OC)c(OC)c(OCC=C(C)C)c1 (stereo not drawn) [Example 23, 1-ethyl-2-(3,4-dimethoxy-5-prenyloxybenzoylaminomethyl)pyrrolidine] here?
Answer: 73.1%

Question: Which inhibition at 10 µM does the source give for CCN1CCCC1CNC(=O)c1ccc(OC/C=C(\C)CCC=C(C)C)nc1 (stereo not drawn) [Example 27, 1-ethyl-2-(6-gearnyloxynicotinoylaminomethyl)pyrrolidine] here?
Answer: 81%

System: stress ulcer
Test: WIS: Restraint and Water Immersion Stress-Induced Ulcer Inhibition Test
Type: in vivo, male Crj:SD or Slc:SD rats
Conditions: rat, 100 mg/kg oral, 7 h water immersion stress; read-out: ulcer formation inhibitory rate (WIS)
Protocol: WIS: Restraint and Water Immersion Stress-Induced Ulcer Inhibition Test
The degree of inhibition of the stress ulcer formation is tested.
Male Crj:SD or Slc:SD rats (6 to 7-week-old) were fasted overnight, but allowed free access to water. Each group has 5 to 8 of these rats. The sample compound was dissolved or suspended in an aqueous solution of 0.3% sodium carboxymethylcellulose or 0.05% Tween 80 and then was orally administered (100 mg/10 ml/kg. To a control group, the vehicle was administered. 10 minutes later, the rats were placed in a stress cage and immersed to the level of xipfoid process in a water bath (21° C.) for 7 hours. At the end of the stress, the rats were sacrificed by inhalation of ether or carbon dioxide. Then, the stomach of each was removed, inflated by injecting 10 ml of 5% formalin neutral buffer solution, and immersed in 1% formalin neutral buffer solution for 30 minutes or more to be fixed. The stomach was incised along the greater curvature and then the length of each erosion in the glandular portion was determined under dissecting microscope. The sum of the length of erosions per stomach was defined as ulcer index (UI).
The effect obtained when 100 mg/kg of the sample compound had been administered was expressed as ulcer formation inhibitory rate (%) as follows:
ulcer formation inhibitory rate (%)=(1-(UI in sample group/UI in control group))×100

Question: Which inhibition in vivo at 100 mg/kg does the source give for CCN1CCCC1CNC(=O)c1cc(OC/C=C(\C)CCC=C(C)C)cc(OC/C=C(\C)CCC=C(C)C)c1 (stereo not drawn) [Example 12, 1-ethyl-2-(3,5-digeranyloxybenzoylaminomethyl)pyrrolidine] here?
Answer: 82%

Question: With CCN1CCCC1CNC(=O)c1ccccc1SC/C=C(\C)CCC=C(C)C (stereo not drawn) [Example 14, 1-ethyl-2-(2-geranylthiobenzoylaminomethyl)pyrrolidine] as the compound, how does the inhibition in vivo at 100 mg/kg read?
Answer: 81%

Question: With CCN1CCCC1CNC(=O)c1ccc(OC/C=C(\C)CCC=C(C)C)c(OC)c1 (stereo not drawn) [Example 16, 1-ethyl-2-(4-geranyloxy-3-methoxybenzoylaminomethyl)pyrrolidine] as the compound, how does the inhibition in vivo at 100 mg/kg read?
Answer: 72%

Question: For CCN1CCCC1CNC(=O)c1cccc(OC)c1OC/C=C(\C)CCC=C(C)C (stereo not drawn) [Example 17, 1-ethyl-2-(2-geranyloxy-3-methoxybenzoylaminomethyl)pyrrolidine], which inhibition in vivo at 100 mg/kg is on record?
Answer: 82%

Question: Which inhibition in vivo at 100 mg/kg does the source give for CCN1CCCC1CNC(=O)c1cc(OC)c(OC)c(OCC=C(C)C)c1 (stereo not drawn) [Example 23, 1-ethyl-2-(3,4-dimethoxy-5-prenyloxybenzoylaminomethyl)pyrrolidine] here?
Answer: 79%

Question: Which inhibition in vivo at 100 mg/kg does the source give for CCN1CCCC1CNC(=O)c1ccc(OC/C=C(\C)CCC=C(C)C)nc1 (stereo not drawn) [Example 27, 1-ethyl-2-(6-gearnyloxynicotinoylaminomethyl)pyrrolidine] here?
Answer: 88%

Same assay, conditions: rat, in vivo

Question: Which “anti-ulcer effect (in words)” value does the source give for CCN1CCCC1CNC(=O)c1ccccc1SC/C=C(\C)CCC=C(C)C (stereo not drawn) [Example 14, 1-ethyl-2-(2-geranylthiobenzoylaminomethyl)pyrrolidine] here?
Answer: the effect has been maintained

System: not listed separately
Test: MTT: Cell Damaging and Protecting Effect Test
Type: cell-based, male Japanese White rabbit
Conditions: rabbit, gastric mucosa cells, final concentration 10^-4 M, smaller value is better, read-out: cell damaging rate (MTT)
Description: MTT: Cell Damaging and Protecting Effect Test
It is confirmed that there is no toxicity in cell level. Those having a toxicity in cell level are inappropriate as an anti-ulcer drug.
A male Japanese White rabbit (2.5 to 3 kg) was anesthetized to death by Nembutal™ and, immediately thereafter, its stomach was removed. The greater curvature of the stomach was incised so as to remove the stomach contents therefrom. After the mucosal surface was washed with HBSS (Hanks' Balanced Salt Solution), the stomach in ice-cooled HBSS was transferred to a laboratory. Then, after the pyloric antrum was removed, the gastric corpus mucosa was separated by a spatula and then minced into 2 to 3 mm^3 pieces in BME (Basal Medium Eagle). Thereafer, these pieces were shaken at 120 to 130 cycles/minute for 15 minutes at 37° C. in BME 60 ml containing 280 U/ml of dispase and 30 to 50 U/ml of collagenase. Here, the concentration of collagenase was appropriately changed for each lot in view of the state of cells. The pieces were washed twice with EBSS (Earle's Balanced Salt Solution) containing 1 mM of EDTA and then shaken in MEM (Minimum Essential Medium) containing 1 mM of EDTA at 37° C. for 5 minutes. Subsequently, they were shaken in the dispase and collagenase having the same concentrations as those mentioned above for 15 minutes so as to remove the supernatant and then further shaken at 37° C. for 50 to 60 minutes at 120 to 130 cycles/minute. Then, after being washed twice with HBSS, Ham F12 containing 2% of Ultrocer G™ was used to attain the concentration of 1×10^6 cells/ml. Thus formed suspension was dispensed in each well of a 96-well plate by 200 μl. The plate was incubated in the atmosphere composed of 5% CO2 and 95% air at 37° C. for three days so as to attain a confluent state and then subjected to MTT assay.
The sample compound was dissolved in DMSO so as to attain a concentration of 10^-2 M and then diluted with HBSS containing 2% of Ultrocer G™ so as to attain a final concentration of 10^-4 M. To each group, which 8 wells were used for, 10 μl of MTT reagent was added immediately after 100 μl of the medium in each well was exchanged for same volume of the resulting solution of the sample compound. After being incubated in an atmosphere composed of 5% CO2 and 95% air at 37° C. for 4 hours, thus formed solution was centrifuged and then its supernatant was discarded. Subsequently, 100 μl of 100% ethanol was added to the residue so as to dissolve MTT formazan. Then, the absorbance (OD: 570 to 630) was measured by a microplate reader. This method utilizes a phenomenon in which MTT is changed to MTT formazan only by mitochondria of living cells so as to change color.
The cell damaging or cell protecting effect of the sample compound at the final concentration of 10^-4 M was expressed as cell damaging rate (%) as follows:
cell damaging rate (%)=(1-(absorbance in sample group/absorbance in control group))×100
Accordingly, the smaller value is better in the cell damaging rate.

Question: For CCN1CCCC1CNC(=O)c1cc(OC/C=C(\C)CCC=C(C)C)cc(OC/C=C(\C)CCC=C(C)C)c1 (stereo not drawn) [Example 12, 1-ethyl-2-(3,5-digeranyloxybenzoylaminomethyl)pyrrolidine], which cytotoxicity at 4 h, 100 µM is on record?
Answer: 29%

Question: With CCN1CCCC1CNC(=O)c1ccccc1SC/C=C(\C)CCC=C(C)C (stereo not drawn) [Example 14, 1-ethyl-2-(2-geranylthiobenzoylaminomethyl)pyrrolidine] as the compound, how does the cytotoxicity at 4 h, 100 µM read?
Answer: 27%

Question: With CCN1CCCC1CNC(=O)c1cccc(OC)c1OC/C=C(\C)CCC=C(C)C (stereo not drawn) [Example 17, 1-ethyl-2-(2-geranyloxy-3-methoxybenzoylaminomethyl)pyrrolidine] as the compound, how does the cytotoxicity at 4 h, 100 µM read?
Answer: 22%

Question: Which cytotoxicity at 4 h, 100 µM does the source give for CCN1CCCC1CNC(=O)c1cc(OC)c(OC)c(OCC=C(C)C)c1 (stereo not drawn) [Example 23, 1-ethyl-2-(3,4-dimethoxy-5-prenyloxybenzoylaminomethyl)pyrrolidine] here?
Answer: -3%

System: Slc:ICR mice
Test: not given
Set-up: species or system male Slc:ICR mice
Conditions: mouse, in vivo
Protocol: AT: Single Dose Toxicity Pretest
Male Slc:ICR mice (5-week-old) were used. Each group has 3 to 5 mice and each mouse was fasted, but allowed free access to water, for 4 to 5 hours from 9 a.m. in the test day. Then, 2,000 mg/10 ml/kg of the sample compound dissolved or suspended in an aqueous solution of 0.5% sodium carboxymethyl cellulose was orally administered thereto. To a control, only the vehicle was administered. […] The body weight was measured before and after the fasting as well as at the same time everyday. The dead animals were immediately subjected to autopsy and their organs were observed by naked eyes. Also, the living animals were sacrificed with ether or carbon dioxide one week after the administration and then their organs were observed by naked eyes.
The toxicity at the single dose of 2,000 mg/kg of the sample compound was expressed as being classified into 5 levels.
5: Mortality rate is 0%; no toxicity is found at all both in behavior and organs.
4: Mortality rate is 0%; while no toxicity is found in organs, slight toxicity is observed in behavior or body weight increase.
3: While there is a dead animal (though not all the animals are dead), no toxicity is found in organs.
2: Regardless of whether there is a dead animal or not, toxicity is found in organs.
1: All the animals are dead.

Question: For CCN1CCCC1CNC(=O)c1ccc(OC/C=C(\C)CCC=C(C)C)c(OC)c1 (stereo not drawn) [Example 16, 1-ethyl-2-(4-geranyloxy-3-methoxybenzoylaminomethyl)pyrrolidine], which “toxicity at single dose (AT), 5 levels” value is on record?
Answer: 4
